The source of these data is PubChem BioAssay (NCI).

Common to all, as to test: inhibition of tumour cell growth, NCI panel, 48 h
Experiment [1] concerns SF-295 CNS.
The test system of experiment [2] is CCRF-CEM leukemia.
Experiment [3] concerns MALME-3M melanoma.
Experiment [4] relates to SF-268 CNS.
The subject of experiment [5] is HCC-2998 colon.
For experiment [6], the system named is NCI-H460 lung.
Experiment [7] concerns NCI/ADR-RES ovarian.
Experiment [8] concerns T-47D breast.
For experiment [9], the system named is HL-60(TB) leukemia.
Experiment [10] concerns HOP-92 NSCLC.

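Where inhibition never reached the appropriate level, the endpoint shown equals the highest concentration tested. Otherwise, values were interpolated linearly from a five-concentration, 48-hour dose response in 96-well plates. Here, GI50 denotes the concentration required for 50% inhibition of growth. TGI: concentration producing complete growth inhibition.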

As for `CC(C)C1(C)N=C(C(F)(F)F)c2cc(C(=O)C(F)(F)F)c3ccccc3c2N1` (stereo unspecified), the TGI in [1] is 11.8 µM; in [2] it was > 100 µM; in experiment [3], 12.7 µM; in experiment [4] it was 13.7 µM; in experiment [5], 11.9 µM; in [6] it was 14.6 µM. The TGI in experiment [7] came to 9.09 µM; in [8], 11.4 µM; in [9], 23.3 µM.

In the case of `CCCCc1c2c(nc3c1CCCC3O)/C(=C/c1ccccc1)CCC2` (stereo unspecified), the TGI in experiment [1] was > 100 µM; in [10], > 100 µM; in experiment [2], 43.9 µM; in experiment [3], 44.8 µM; in experiment [4], 85.3 µM; in [5], 24.3 µM. Also, the figures for the TGI in [6] and in experiment [9] were > 100 µM and 43 µM, respectively.

Take `NCCCNc1nc2ccccc2c2c(=O)c3cc(C(F)(F)F)ccc3sc12`: the GI50 in experiment [1] is 1.8 µM; in experiment [10], 1.37 µM; in experiment [6], 1.66 µM. In addition, the TGI worked out at 3.21 µM in experiment [1], 2.85 µM in [10] and 3.17 µM in experiment [6].

As for `CCCCCCOc1ccc(C(=O)NOCc2ccccc2)cc1`, the TGI in [1], in [10], in experiment [2], in experiment [4], in [5] and in experiment [6] was > 100 µM each time. The TGI in experiment [7] and in experiment [9] was > 100 µM in each case.

With `CCOc1ccc(/C(O)=C/c2nc3ccccc3nc2/C=C(\O)c2ccc(OCC)cc2)cc1`, the TGI in experiment [1], in [10], in [2], in experiment [3], in [4] and in experiment [5] was > 100 µM throughout. The TGI in [6], in experiment [8] and in experiment [9] was > 100 µM each time.

On to `COc1cccc(NC(=S)Nn2c(C)nc3ccccc3c2=O)c1`, for which the TGI in experiment [1], in experiment [10], in [2], in [3], in experiment [4] and in experiment [6] was > 100 µM each time. In [9], the TGI is > 100 µM.

On to `CN1CN(c2ccccc2)C2(CCN(CCCSc3ccccc3NC(=O)/C=C/c3ccccc3)CC2)C1=O`, for which the TGI was 7.95 µM in experiment [1]; > 100 µM in [2]; 4.77 µM in [3]; > 46 µM in experiment [4]; 20.6 µM in experiment [5]; 14.8 µM in experiment [6]. The TGI in experiment [7] was 22.4 µM; in experiment [8], > 59.7 µM; in experiment [9] it was 23.8 µM.

Take `O=C1NC(Cc2c[nH]c3ccccc23)C(=O)N2C(C3CCCCC3)c3[nH]c4ccccc4c3C[C@@H]12` (stereo partly specified): the TGI in experiment [1] turned out to be 43.5 µM; in [10], 46.2 µM; in experiment [3] it was 28.4 µM; in experiment [4], 49.3 µM; in [7] it was 41.2 µM; in [9], 42.9 µM.

On to `CCCCC(C)C1CCC2(C)C=CC(=O)C(C)=C2C1O` (stereo unspecified), for which the TGI in experiment [1], in [10], in [2], in experiment [4], in experiment [5] and in [6] was > 100 µM in each case. In addition, the TGI in experiment [7] and in experiment [9] was > 100 µM each time.

Take `CCCn1c(SCC)c2ccccc2c1-c1nc(F)nc(F)n1`: the TGI in experiment [1], in experiment [10], in experiment [2], in [3], in [4] and in experiment [5] was > 100 µM in each case. Moreover, the TGI in experiment [6] and in [9] was > 100 µM each time.

`Clc1ccc(SCCSCCCCCCCCCCSCCSc2ccc(Cl)cc2)cc1`: the TGI in [1], in [10], in [2], in experiment [3], in [4] and in experiment [5] was > 100 µM in each case. The TGI in experiment [6] and in [9] was > 100 µM throughout.

For `COC(OC)c1cccc2c1C(=O)CCC1(O)c3ccccc3C1C2` (stereo unspecified), the TGI in [1], in experiment [2], in experiment [3], in experiment [4], in experiment [5] and in experiment [9] was > 100 µM each time.

As to `COc1ccc(C2C3C(=O)C=CC(=O)C3[C@@H]2C)cc1OC` (stereo partly specified), the TGI in [1], in experiment [10], in [3], in experiment [4], in experiment [5] and in [6] was > 100 µM throughout.

For `O=C(/C=C/c1ccc(Cl)cc1)Oc1ccc(/C=C2\CCCCC2=O)cc1`, the TGI in [1], in experiment [10], in [2], in experiment [3], in experiment [4] and in experiment [5] was > 100 µM in each case. The TGI in [6], in [8] and in experiment [9] was > 100 µM in each case.

As for `COCC1OC(OC2C3=C(C(C)C)CCC3(C)/C=C3\C(CCC3(O)COC)C(C)C2O)C(O)C2OC3OC12OC3(C)C1CO1` (stereo unspecified), the TGI was > 100 µM in experiment [1]; > 100 µM in [10]; 59.6 µM in experiment [2]; > 100 µM in [3]; 68.4 µM in [4]; > 100 µM in experiment [5]. The TGI in experiment [6] was > 100 µM; in experiment [8], > 100 µM; in experiment [9] it was 54.1 µM.

As for `COc1cc2c(c(C)c1O)[C@H]1COc3ccccc3[C@H]1O2`, the TGI in experiment [1] was > 100 µM; in experiment [10] it was 47.6 µM; in [2], 56.6 µM; in [3], 89.1 µM; in experiment [4], 96.1 µM; in experiment [6], 31.8 µM. The same compound displayed a TGI in experiment [9] of 12.7 µM.

For the compound `CC1(C)CC(=O)C2=C(C1)c1c(ccc3ccccc13)NC2c1cn(Cc2ccc(Cl)cc2)c2ccccc12` (stereo unspecified), the TGI in experiment [1], in experiment [10], in experiment [2], in experiment [4], in experiment [6] and in experiment [7] was > 100 µM throughout. Also, the TGI in experiment [8] and in [9] was > 100 µM each time.
